Data: patent US4271193A, “N1-Benzoyl-N2-phenyldiaminopropanols and pharmaceutical compositions thereof, and processes for their preparation” (Kali-Chemie Pharma GmbH, priority 1978, dated 1981)

How the values were obtained:
[1] = Acute 7-day toxicity after single application per os; conditions: mouse, in vivo, po, white NMRI-mice, not fed
Protocol: The acute 7-day toxicity is determined after a single application per os in white NMRI-mice which had not been fed. The calculation of the LD50 is carried out by probitananalysis by means of electronic data processing (see L. Cavalli-Sforza, Gustav Fischer-Verlag, Stuttgart (1964), Grundbegriffe der Biometrie, p. 153).

stomach epithelium cells = assay: Inhibition of acetylsalicylic acid-induced loss of stomach epithelium cells; type: in vivo; conditions: Rattus norvegicus; narcotized male SIV50 rats; acetylsalicylic acid as irritant; 3 times 300 mg/kg test compound orally beforehand; read-out: % reduction of loss of epithelium cells in the stomach
Protocol: 2. Inhibition of loss of stomach epithelium cells
The test compound is orally administered to narcotized male rats of the breed SIV50 prior to the beginning of the test. […] In order to determine the induced total loss of cells in the rats stomach, acetylsalicylic acid is administered to animals without prior administration of a protective compound.
In order to prepare the animals for the determination, the trachea is laid free and a tube introduced therein. Subsequently, a laparotomy in the medial part, displacement of the stomach and introducing and fixing of a vein-catheter for recovering stomach juices are effected. By means of the introduced vein-catheter, stomach juice is recovered and then is centrifuged and microscopically analyzed.
The percent reduction of loss of cells induced by the acetylsalicylic acid after previous administration of 3 times 300 mg/kg of the test compound is determined.

Structure (SMILES) | LD50 at 168 h [1] | inhibition in vivo at 300 mg/kg (stomach epithelium cells)
CCN(CC(O)CNC(=O)c1cc(OC)c(OC)c(OC)c1)c1ccc(F)cc1 (stereo not drawn) [E] | > 1280 mg/kg | 43%
COc1cc(C(=O)NCC(O)CNc2c(C)cc(C)cc2C)cc(OC)c1OC (stereo not drawn) [F] | > 1270 mg/kg | 28.4%
COc1ccc(C(=O)NCC(O)CN(C)c2ccc(F)cc2)c2c1OCCO2 (stereo not drawn) [H] | > 1230 mg/kg | 48.6%
CCOc1cc(C(=O)NCC(O)CN(C)c2ccc(F)cc2)cc(OCC)c1OCC (stereo not drawn) [G] | > 1370 mg/kg | 63%
COc1cc(C(=O)NCC(O)CN(C)c2ccc(C(F)(F)F)cc2)cc(OC)c1OC (stereo not drawn) [C] | > 1390 mg/kg | 47.8%
CCCCOc1c(OC)cc(C(=O)NCC(O)CN(C)c2ccc(F)cc2)cc1OC (stereo not drawn) [I] | > 1370 mg/kg | 27.2%
COc1cc(C(=O)NCC(O)CN(C)c2ccc(Cl)cc2)cc(OC)c1OC (stereo not drawn) [B] | > 5000 mg/kg | 77%
COc1cc(C(=O)NCC(O)CN(C)c2ccc(C)cc2)cc(OC)c1OC (stereo not drawn) [D] | > 3160 mg/kg | 47.8%
COc1cc(C(=O)NCC(O)CN(C)c2ccc(F)cc2)cc(OC)c1OC (stereo not drawn) [A] | 5010 mg/kg | 53%
